From US9596854B2, “Fungicidal penflufen mixtures” (priority 2010, dated 2017)
Read-outs that look alike come from different tables or passages of the source.

Legend:
Test in all cases: Synergism test: MIC of radial hyphae growth on malt extract/peptone agar, SI by Kull
Type in all cases: cell-based
[1] = system: Poria placenta; conditions: nutrient agar, 26° C
[2] = system: Gloeophyllum trabeum
[3] = system: Coniophora puteana; conditions: Example 8, penflufen/boron oxide, nutrient agar, 26° C
[4] = system: Coriolus versicolor; conditions: for MIC: Trametes versicolor
[5] = system: Stereum sanguinolentum; conditions: nutrient agar, 26° C
[6] = Example 1, penflufen/IPBC, nutrient agar, 26° C, complete suppression of radial hyphae growth, read-out: MIC against Gloeophyllum trabeum
[7] = Example 9, penflufen/boric acid, nutrient agar, 26° C, read-out: MIC Gloeophyllum trabeum
[8] = Example 3, penflufen/Lonzabac, nutrient agar, 26° C, read-out: MIC against Coriolus versicolor
[9] = Example 4, penflufen/DDAC, read-out: MIC Poria placenta
[10] = Example 5, penflufen/DDA propionate

Compound: benzalkonium chloride
- MIC against Poria placenta ([1]; Example 6, penflufen/benzalkonium chloride): 100.0 ppm

Compound: Oc1ccccc1-c1ccccc1 [o-phenylphenol]
- MIC ([2]; read-out: MIC against Gloeophyllum trabeum): 60 µg/mL

Compound: boron oxide
- MIC against Coniophora puteana [3]: 100 ppm

Compound: CCCCNC(=O)OCC#CI [IPBC, 3-Iodo-2-propynyl N-butylcarbamate]
- MIC [2, 6]: 10 µg/mL

Compound: OB(O)O [boric acid]
- MIC [2, 7]: 100 µg/mL
- MIC ([4]; Example 9, penflufen/boric acid, nutrient agar, 26° C, read-out: MIC Coriolus versicolor): 100 µg/mL

Compound: Cc1nn(C)c(F)c1C(=O)Nc1ccccc1C(C)CC(C)C (stereo not drawn) [penflufen]
- MIC Stereum sanguinolentum ([5]; Example 7, penflufen/Carboquat): 3.0 ppm
- MIC ([5]; Stereum sanguinolentum, Example 5, penflufen/DDA propionate): 3 µg/mL
- MIC ([3]; Coniophora puteana, read-out: MIC against Coniophora puteana): 0.7 µg/mL
- MIC [2, 6]: 0.3 µg/mL
- MIC [2, 7]: 0.3 µg/mL
- MIC ([2]; Example 11, penflufen/o-phenylphenol, nutrient agar, 26° C, read-out: MIC against Gloeophyllum trabeum): 0.7 µg/mL
- MIC Coriolus versicolor ([4]; Example 9, penflufen/boric acid, nutrient agar, 26° C): 0.1 ppm
- MIC [4, 8]: 0.5 µg/mL
- MIC ([4]; Example 4, penflufen/DDAC, nutrient agar, 26° C, read-out: MIC Coriolus versicolor): 0.1 µg/mL
- MIC ([1]; Example 2, penflufen/DCOIT, read-out: MIC against Poria placenta): 0.3 µg/mL
- MIC [1, 9]: 0.1 µg/mL
- MIC ([1]; Example 5, penflufen/DDA propionate, read-out: MIC Poria placenta): 0.3 µg/mL
- MIC ([1]; Example 6, penflufen/benzalkonium chloride, read-out: MIC against Poria placenta): 0.3 µg/mL
- MIC ([1]; Example 7, penflufen/Carboquat, read-out: MIC Poria placenta): 0.3 µg/mL
- MIC ([1]; Example 10, penflufen/sodium borate, read-out: MIC against Poria placenta): 0.3 µg/mL

Compound: CCCCCCCCCCCCN(CCCN)CCCN [Lonzabac, N-(3-aminopropyl)-N-dodecyl-1,3-propanediamine]
- MIC [4, 8]: 30 µg/mL

Compound: didecylmethylpoly(oxyethyl)ammonium Propionate [DDA propionate]
- MIC Stereum sanguinolentum [5, 10]: 30.0 ppm
- MIC Poria placenta [1, 10]: 100.0 ppm

Compound: CCCCCCCCCC[N+](C)(C)CCCCCCCCCC.[Cl-] [DDAC, Didecyldimethylammonium Chloride]
- MIC ([4]; read-out: MIC Coriolus versicolor): 60 µg/mL
- MIC [1, 9]: 100 µg/mL

Compound: O.O.O.O.O.O.O.O.O.O.[Na+].[Na+].[O-]B1OB2OB([O-])OB(O1)O2 [sodium borate]
- MIC against Poria placenta ([1]; Example 10, penflufen/sodium borate): 100.0 ppm
